By IC50 is commonly meant the midpoint of a concentration-inhibition curve. The Ki is a measure of affinity in units of concentration, obtained from inhibition or displacement.

Sodium-dependent noradrenaline transporter, sequence (P23975 whole entry): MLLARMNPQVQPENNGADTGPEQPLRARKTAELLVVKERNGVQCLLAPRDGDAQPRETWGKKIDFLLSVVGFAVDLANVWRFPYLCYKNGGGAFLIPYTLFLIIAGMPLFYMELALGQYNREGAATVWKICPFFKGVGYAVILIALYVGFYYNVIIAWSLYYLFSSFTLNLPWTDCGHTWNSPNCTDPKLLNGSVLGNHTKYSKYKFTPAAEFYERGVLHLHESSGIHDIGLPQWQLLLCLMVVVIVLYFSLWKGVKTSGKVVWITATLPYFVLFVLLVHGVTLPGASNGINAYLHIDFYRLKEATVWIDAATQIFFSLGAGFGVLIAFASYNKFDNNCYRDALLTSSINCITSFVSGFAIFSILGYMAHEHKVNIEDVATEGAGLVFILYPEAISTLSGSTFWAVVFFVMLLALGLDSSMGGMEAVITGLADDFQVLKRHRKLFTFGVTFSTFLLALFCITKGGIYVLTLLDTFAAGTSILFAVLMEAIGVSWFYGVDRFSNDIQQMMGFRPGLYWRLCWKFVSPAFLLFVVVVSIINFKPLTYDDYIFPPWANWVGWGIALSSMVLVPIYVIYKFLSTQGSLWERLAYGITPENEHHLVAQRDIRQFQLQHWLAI

In the first series the target is Cytochrome P450 2C19 (Homo sapiens, UniProt P33261). Further: in other assays of this panel Not Active means under 50% inhibition at 10 µM.
Cytochrome P450 2C19, sequence (P33261 whole entry): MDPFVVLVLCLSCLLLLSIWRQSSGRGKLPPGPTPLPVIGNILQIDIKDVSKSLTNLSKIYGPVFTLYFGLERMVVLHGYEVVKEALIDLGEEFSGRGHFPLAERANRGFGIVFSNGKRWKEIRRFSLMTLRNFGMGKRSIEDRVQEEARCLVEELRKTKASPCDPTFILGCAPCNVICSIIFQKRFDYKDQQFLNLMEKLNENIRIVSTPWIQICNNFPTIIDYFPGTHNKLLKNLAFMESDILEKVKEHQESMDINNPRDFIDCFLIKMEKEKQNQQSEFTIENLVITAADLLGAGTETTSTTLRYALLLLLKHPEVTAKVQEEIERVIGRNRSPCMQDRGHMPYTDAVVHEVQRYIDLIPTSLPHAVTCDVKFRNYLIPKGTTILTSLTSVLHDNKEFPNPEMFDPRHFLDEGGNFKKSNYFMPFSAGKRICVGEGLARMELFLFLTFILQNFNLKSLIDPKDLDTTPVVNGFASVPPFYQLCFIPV
Test: not given
To be noted: bti-tn-5b1-4.
Turning to `Clc1ccc2c(c1)C(N1CCNCC1)=Nc1ccccc1O2` [AMOXAPINE], the IC50 result was “Not Active” and the Ki result is on record as “Not Active”.

As to `CN1CCC(=C2c3ccccc3C=Cc3ccccc32)CC1` [CYPROHEPTADINE], the IC50 entry was “Not Active” and the Ki entry is recorded as “Not Active”.

As for `CC/C(=C(/CC)c1ccc(O)cc1)c1ccc(O)cc1` [DIETHYLSTILBESTROL], the IC50 result was “Not Active” and the Ki result was “Not Active”.

Regarding `CC(=O)N1CCN(c2ccc(OCC3COC(Cn4ccnc4)(c4ccc(Cl)cc4Cl)O3)cc2)CC1` (stereo unspecified) [KETOCONAZOLE], the IC50 result was “Not Active” and the Ki entry was “Not Active”.

Turning to `CC(C)NCC(O)COc1cccc2ccccc12` (stereo unspecified) [PROPRANOLOL], the IC50 result was “Not Active” and the Ki result is “Not Active”.

The target in the next series is T1, B2 bradykinin receptor (Homo sapiens, UniProt P30411). Further: in other assays of this panel Not Active means under 50% inhibition at 10 µM.
T1 sequence (P30411 whole entry): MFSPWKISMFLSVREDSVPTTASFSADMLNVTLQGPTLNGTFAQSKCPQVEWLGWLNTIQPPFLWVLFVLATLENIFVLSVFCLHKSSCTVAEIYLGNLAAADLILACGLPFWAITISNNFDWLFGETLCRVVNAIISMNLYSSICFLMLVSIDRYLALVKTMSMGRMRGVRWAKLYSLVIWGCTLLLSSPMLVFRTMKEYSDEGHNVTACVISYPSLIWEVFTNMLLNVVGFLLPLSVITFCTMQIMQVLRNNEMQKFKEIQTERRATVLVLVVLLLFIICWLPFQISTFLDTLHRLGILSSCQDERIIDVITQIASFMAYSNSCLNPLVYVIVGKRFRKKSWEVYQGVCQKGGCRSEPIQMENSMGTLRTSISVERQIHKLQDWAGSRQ
Test: not given
It is filed as cell membranes, Membrane. The conditions noted are these: chem-1.
As for `Clc1ccc2c(c1)C(N1CCNCC1)=Nc1ccccc1O2` [AMOXAPINE], the IC50 result is given as “Not Active”.

For the compound `CN1CCC(=C2c3ccccc3C=Cc3ccccc32)CC1` [CYPROHEPTADINE], the IC50 result is reported as “Not Active”.

Turning to `CC/C(=C(/CC)c1ccc(O)cc1)c1ccc(O)cc1` [DIETHYLSTILBESTROL], the IC50 result is listed as “Not Active”.

Regarding `CC(=O)N1CCN(c2ccc(OCC3COC(Cn4ccnc4)(c4ccc(Cl)cc4Cl)O3)cc2)CC1` (stereo unspecified) [KETOCONAZOLE], the IC50 entry is given as “Not Active”.

`CC(C)NCC(O)COc1cccc2ccccc12` (stereo unspecified) [PROPRANOLOL]: the IC50 entry was “Not Active”.

Another series concerns the target T2, Muscarinic acetylcholine receptor M2 (Homo sapiens, UniProt P08172). Further: in other assays of this panel Not Active means under 50% inhibition at 10 µM.
T2 sequence (P08172 whole entry): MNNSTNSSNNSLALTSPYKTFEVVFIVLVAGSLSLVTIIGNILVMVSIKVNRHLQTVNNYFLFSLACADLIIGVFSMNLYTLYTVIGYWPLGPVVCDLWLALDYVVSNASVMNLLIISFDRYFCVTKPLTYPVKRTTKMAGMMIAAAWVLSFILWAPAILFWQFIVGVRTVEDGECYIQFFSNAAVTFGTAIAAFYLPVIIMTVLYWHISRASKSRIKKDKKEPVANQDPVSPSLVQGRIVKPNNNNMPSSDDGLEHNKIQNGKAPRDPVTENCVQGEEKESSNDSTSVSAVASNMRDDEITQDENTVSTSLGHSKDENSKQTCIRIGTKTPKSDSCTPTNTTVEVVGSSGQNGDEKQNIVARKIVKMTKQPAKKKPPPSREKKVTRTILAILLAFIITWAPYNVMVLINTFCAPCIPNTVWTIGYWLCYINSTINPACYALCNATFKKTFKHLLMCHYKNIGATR
Test: not given
Format: cell membranes, CHO-K1, Membrane. To be noted: cho-k1.
As to `CC/C(=C(/CC)c1ccc(O)cc1)c1ccc(O)cc1` [DIETHYLSTILBESTROL], the IC50 entry was “Not Active”.

`CC(C)NCC(O)COc1cccc2ccccc12` (stereo unspecified) [PROPRANOLOL]: the IC50 result is recorded as “Not Active”.

The target of a further series is T3, 5-hydroxytryptamine receptor 1A (Rattus norvegicus, UniProt P19327). Further: in other assays of this panel Not Active means under 50% inhibition at 10 µM.
T3 sequence (P19327 whole entry): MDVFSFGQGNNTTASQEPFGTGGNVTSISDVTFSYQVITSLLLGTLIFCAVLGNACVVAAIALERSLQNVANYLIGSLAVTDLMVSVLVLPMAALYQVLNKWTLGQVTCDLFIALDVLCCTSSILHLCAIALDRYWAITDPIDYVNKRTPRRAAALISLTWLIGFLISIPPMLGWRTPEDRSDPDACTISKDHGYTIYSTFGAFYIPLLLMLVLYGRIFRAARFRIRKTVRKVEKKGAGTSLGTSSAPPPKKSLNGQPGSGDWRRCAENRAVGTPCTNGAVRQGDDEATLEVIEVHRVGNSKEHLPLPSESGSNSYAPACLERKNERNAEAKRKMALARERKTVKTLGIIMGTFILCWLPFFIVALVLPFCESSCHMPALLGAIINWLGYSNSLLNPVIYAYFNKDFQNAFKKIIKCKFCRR
Test: not given
It is filed as cell membranes, Membrane. The conditions noted are these: cho-k1.
With `Clc1ccc2c(c1)C(N1CCNCC1)=Nc1ccccc1O2` [AMOXAPINE], the IC50 result is “Not Active”.

For the compound `CC/C(=C(/CC)c1ccc(O)cc1)c1ccc(O)cc1` [DIETHYLSTILBESTROL], the IC50 result is on record as “Not Active”.

As to `CC(=O)N1CCN(c2ccc(OCC3COC(Cn4ccnc4)(c4ccc(Cl)cc4Cl)O3)cc2)CC1` (stereo unspecified) [KETOCONAZOLE], the IC50 entry is “Not Active”.

Another series has as its target T4, Interstitial collagenase (Homo sapiens, UniProt P03956).
T4 sequence (P03956 whole entry): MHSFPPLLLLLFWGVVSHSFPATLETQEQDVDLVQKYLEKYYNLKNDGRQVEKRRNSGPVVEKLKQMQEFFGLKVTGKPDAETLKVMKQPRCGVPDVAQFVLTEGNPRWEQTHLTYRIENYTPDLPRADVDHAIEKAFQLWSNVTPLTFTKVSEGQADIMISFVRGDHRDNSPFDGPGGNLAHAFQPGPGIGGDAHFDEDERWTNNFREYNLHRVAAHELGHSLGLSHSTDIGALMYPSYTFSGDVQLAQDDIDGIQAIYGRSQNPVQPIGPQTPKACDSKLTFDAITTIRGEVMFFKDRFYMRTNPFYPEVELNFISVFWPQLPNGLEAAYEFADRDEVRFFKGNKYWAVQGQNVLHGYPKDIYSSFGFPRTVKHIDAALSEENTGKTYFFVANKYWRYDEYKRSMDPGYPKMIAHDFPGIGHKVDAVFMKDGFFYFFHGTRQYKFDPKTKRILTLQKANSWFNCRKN
Description: biochemical.
Settings: not given
It is filed as tissue-based, Rheumatoid synovial fibroblasts.
As to `Clc1ccc2c(c1)C(N1CCNCC1)=Nc1ccccc1O2` [AMOXAPINE], the IC50 result was “Not Active”.

For the compound `CN1CCC(=C2c3ccccc3C=Cc3ccccc32)CC1` [CYPROHEPTADINE], the IC50 entry is on record as “Not Active”.

On to `CC/C(=C(/CC)c1ccc(O)cc1)c1ccc(O)cc1` [DIETHYLSTILBESTROL], for which the IC50 entry is given as “Not Active”.

In the case of `CC(=O)N1CCN(c2ccc(OCC3COC(Cn4ccnc4)(c4ccc(Cl)cc4Cl)O3)cc2)CC1` (stereo unspecified) [KETOCONAZOLE], the IC50 result is on record as “Not Active”.

On to `CC(C)NCC(O)COc1cccc2ccccc12` (stereo unspecified) [PROPRANOLOL], for which the IC50 result is reported as “Not Active”.

Another series concerns the target T5, Adenosine receptor A1 (Homo sapiens, UniProt P30542).
T5 sequence (P30542 whole entry): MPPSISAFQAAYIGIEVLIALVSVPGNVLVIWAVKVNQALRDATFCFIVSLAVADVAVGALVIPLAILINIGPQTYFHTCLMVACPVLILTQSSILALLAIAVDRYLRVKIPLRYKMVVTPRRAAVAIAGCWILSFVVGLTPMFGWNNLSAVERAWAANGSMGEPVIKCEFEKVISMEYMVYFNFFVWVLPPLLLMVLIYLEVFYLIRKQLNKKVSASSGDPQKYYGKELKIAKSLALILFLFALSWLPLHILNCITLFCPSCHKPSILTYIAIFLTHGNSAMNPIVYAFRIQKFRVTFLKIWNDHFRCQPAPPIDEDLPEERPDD
Test: not given
It is filed as cell membranes, Membrane. To be noted: cho.
In the case of `Clc1ccc2c(c1)C(N1CCNCC1)=Nc1ccccc1O2` [AMOXAPINE], the IC50 entry is listed as “Not Active”.

Take `CN1CCC(=C2c3ccccc3C=Cc3ccccc32)CC1` [CYPROHEPTADINE]: the concentration for half-maximal inhibition (IC50) result was “Not Active”.

In the case of `CC(=O)N1CCN(c2ccc(OCC3COC(Cn4ccnc4)(c4ccc(Cl)cc4Cl)O3)cc2)CC1` (stereo unspecified) [KETOCONAZOLE], the IC50 result is on record as “Not Active”.

For the compound `CC(C)NCC(O)COc1cccc2ccccc12` (stereo unspecified) [PROPRANOLOL], the IC50 result is recorded as “Not Active”.

For the next series, the target named is Cytochrome P450 3A4 (Homo sapiens, UniProt P08684). Further: in other assays of this panel Not Active means under 50% inhibition at 10 µM.
Cytochrome P450 3A4, sequence (P08684 whole entry): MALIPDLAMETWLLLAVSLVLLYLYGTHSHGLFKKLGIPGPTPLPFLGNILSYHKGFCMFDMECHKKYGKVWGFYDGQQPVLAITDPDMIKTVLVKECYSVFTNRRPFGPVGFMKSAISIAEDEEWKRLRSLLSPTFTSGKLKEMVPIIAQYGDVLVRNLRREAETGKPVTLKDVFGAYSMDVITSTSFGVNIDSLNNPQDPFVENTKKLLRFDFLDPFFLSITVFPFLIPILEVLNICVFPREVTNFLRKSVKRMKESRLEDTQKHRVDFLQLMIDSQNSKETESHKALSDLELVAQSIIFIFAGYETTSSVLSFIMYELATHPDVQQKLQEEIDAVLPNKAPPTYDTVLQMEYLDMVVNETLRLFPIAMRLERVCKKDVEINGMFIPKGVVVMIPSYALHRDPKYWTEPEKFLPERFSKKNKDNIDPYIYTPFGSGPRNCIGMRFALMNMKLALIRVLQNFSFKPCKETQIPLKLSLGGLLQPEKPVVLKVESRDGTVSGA
Test: not given
To be noted: bti-tn-5b1-4.
Regarding `Clc1ccc2c(c1)C(N1CCNCC1)=Nc1ccccc1O2` [AMOXAPINE], the IC50 result is on record as “Not Active” and the Ki entry is recorded as “Not Active”.

Turning to `CN1CCC(=C2c3ccccc3C=Cc3ccccc32)CC1` [CYPROHEPTADINE], the IC50 entry is “Not Active” and the Ki entry was “Not Active”.

In the case of `CC/C(=C(/CC)c1ccc(O)cc1)c1ccc(O)cc1` [DIETHYLSTILBESTROL], the IC50 entry was “Not Active” and the Ki result is given as “Not Active”.

As to `CC(C)NCC(O)COc1cccc2ccccc12` (stereo unspecified) [PROPRANOLOL], the IC50 entry is “Not Active” and the Ki result was “Not Active”.

Test system in a further series: not listed separately
Briefly: DRUGMATRIX: Tumor Necrosis Factor (TNF), Non-Selective radioligand binding (ligand: [125I] TNF-alpha). Format: cell membranes, Membrane. To be noted: u-937; Not Active = under 50% inhibition at 10 µM.
`CC(=O)N1CCN(c2ccc(OCC3COC(Cn4ccnc4)(c4ccc(Cl)cc4Cl)O3)cc2)CC1` (stereo unspecified) [KETOCONAZOLE]: the IC50 result was “Not Active” and the Ki result is listed as “Not Active”.

Another series has as its target Sodium-dependent noradrenaline transporter (Homo sapiens, UniProt P23975). Description: DRUGMATRIX: Norepinephrine Transporter radioligand binding (ligand: [125I] RTI-55). It is filed as cell membranes, MDCK, Membrane. To be noted: Not Active = under 50% inhibition at 10 µM; read-out: IC50.
With `CC(=O)N1CCN(c2ccc(OCC3COC(Cn4ccnc4)(c4ccc(Cl)cc4Cl)O3)cc2)CC1` (stereo unspecified) [KETOCONAZOLE], the IC50 came to 24.2 µM.

The same series, now with this note: Not Active = under 50% inhibition at 10 µM; read-out: Ki.
As for `CC(=O)N1CCN(c2ccc(OCC3COC(Cn4ccnc4)(c4ccc(Cl)cc4Cl)O3)cc2)CC1` (stereo unspecified) [KETOCONAZOLE], the Ki was found to be 24 µM.

A further series has as its target T6, Caspase-1 (Homo sapiens, UniProt P29466).
T6 sequence (P29466 whole entry): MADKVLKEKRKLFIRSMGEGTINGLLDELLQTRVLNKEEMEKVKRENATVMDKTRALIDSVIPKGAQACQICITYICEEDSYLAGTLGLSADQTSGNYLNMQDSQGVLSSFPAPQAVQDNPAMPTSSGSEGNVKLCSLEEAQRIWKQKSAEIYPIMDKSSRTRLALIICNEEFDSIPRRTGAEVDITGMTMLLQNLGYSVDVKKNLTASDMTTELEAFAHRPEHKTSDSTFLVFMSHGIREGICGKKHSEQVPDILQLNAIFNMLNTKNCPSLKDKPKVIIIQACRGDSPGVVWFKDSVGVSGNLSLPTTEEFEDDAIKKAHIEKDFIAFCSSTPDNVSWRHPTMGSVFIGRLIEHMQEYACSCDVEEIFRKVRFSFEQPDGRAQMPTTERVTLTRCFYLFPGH
Test: not given
Also noted: species or system Escherichia coli.
Settings: not given
As to `Clc1ccc2c(c1)C(N1CCNCC1)=Nc1ccccc1O2` [AMOXAPINE], the IC50 entry is listed as “Not Active”.

`CN1CCC(=C2c3ccccc3C=Cc3ccccc32)CC1` [CYPROHEPTADINE]: the IC50 result is recorded as “Not Active”.

For the compound `CC/C(=C(/CC)c1ccc(O)cc1)c1ccc(O)cc1` [DIETHYLSTILBESTROL], the IC50 entry is given as “Not Active”.

With `CC(=O)N1CCN(c2ccc(OCC3COC(Cn4ccnc4)(c4ccc(Cl)cc4Cl)O3)cc2)CC1` (stereo unspecified) [KETOCONAZOLE], the IC50 result was “Not Active”.

Consider `CC(C)NCC(O)COc1cccc2ccccc12` (stereo unspecified) [PROPRANOLOL], for which the IC50 result is “Not Active”.

Values taken from ChEMBL document CHEMBL1909046, “DrugMatrix in vitro pharmacology data”.
